Assay results from publication PMC7956155, “Design and Evaluation of Peptide Dual-Agonists of GLP-1 and NPY2 Receptors for Glucoregulation and Weight Loss with Mitigated Nausea and Emesis” (Journal of Medicinal Chemistry, 2021).
Square brackets hold non-standard residues; d marks the D form. Ends that are not written are not given here.

Key:
human GLP-1R [1] = target: T1, human GLP-1R (Homo sapiens, UniProt P43220); experiment: Taglite fluorescent competitive binding assay at GLP-1R against GLP-1red; details: CHO-K1 cells, tracer GLP-1red 4 nM, duplicate independent runs
human Y2-R = target: T2, human Y2-R (Homo sapiens, UniProt P49146); experiment: cAMP FRET reporter (H188) assay at Y2-R: counteraction of adenosine-stimulated cAMP in HEK293 cells; format: cell-based; details: HEK cells with H188 biosensor, recombinant human Y2-R and endogenous A2b receptors; 2 μM adenosine; 95% CI in brackets, at least triplicate; read-out: Y2-R agonist action (IC50), decrease of adenosine-raised cAMP
T2 sequence (P49146 1-381): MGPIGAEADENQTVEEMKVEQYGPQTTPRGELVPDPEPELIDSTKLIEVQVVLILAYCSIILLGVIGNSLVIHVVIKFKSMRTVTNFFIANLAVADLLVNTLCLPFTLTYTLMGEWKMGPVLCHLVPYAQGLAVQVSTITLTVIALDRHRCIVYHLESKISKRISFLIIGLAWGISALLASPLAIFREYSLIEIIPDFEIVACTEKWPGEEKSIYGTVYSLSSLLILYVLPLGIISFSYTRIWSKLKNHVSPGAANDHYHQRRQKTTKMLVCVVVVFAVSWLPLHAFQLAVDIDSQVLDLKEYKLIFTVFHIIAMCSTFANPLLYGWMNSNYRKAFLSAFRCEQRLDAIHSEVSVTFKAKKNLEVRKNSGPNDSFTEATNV

human Y1-R = target: T3, human Y1-R (Homo sapiens, UniProt P25929); experiment: cAMP FRET reporter (H188) assay at Y1-R: counteraction of adenosine-stimulated cAMP in HEK293 cells; format: cell-based; details: HEK cells with H188 biosensor, recombinant human Y1-R and endogenous A2b receptors; 2 μM adenosine; 95% CI in brackets, at least triplicate; read-out: Y1-R agonist action (IC50), decrease of adenosine-raised cAMP
T3 sequence (P25929 1-384): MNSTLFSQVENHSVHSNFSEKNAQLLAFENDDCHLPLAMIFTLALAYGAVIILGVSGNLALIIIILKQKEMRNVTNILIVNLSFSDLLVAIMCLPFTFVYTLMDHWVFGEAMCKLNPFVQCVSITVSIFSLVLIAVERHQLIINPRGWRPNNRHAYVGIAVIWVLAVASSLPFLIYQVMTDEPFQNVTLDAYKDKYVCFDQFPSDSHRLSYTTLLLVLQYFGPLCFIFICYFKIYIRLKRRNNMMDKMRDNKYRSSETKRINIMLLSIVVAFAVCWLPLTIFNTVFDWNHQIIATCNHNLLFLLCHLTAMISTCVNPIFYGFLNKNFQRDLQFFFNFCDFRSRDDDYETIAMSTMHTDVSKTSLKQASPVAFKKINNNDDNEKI

human GLP-1R [2] = target: T1, human GLP-1R; experiment: cAMP FRET reporter (H188) agonism assay at human GLP-1R in HEK293 cells; format: cell-based
Method: HEK293 cells stably expressing the human GLP-1R and virally transduced with H188 for FRET assays were obtained from Novo Nordisk A/S (Bagsvaerd, Denmark).[67] […] Post-transfection, cells were incubated for 48 h in fresh culture media. For real-time kinetic assays of FRET, cells were harvested and resuspended in 21 mL of SES buffer and plated at 196 μL per well. […] FRET assays and data analysis were performed using a FlexStation 3 microplate reader as described.
Cells were then transduced for 16 h with H188 virus at a density of 60 000 cells/well under conditions in which the multiplicity of infection was equivalent to 25 viral particles per cell. The culture media was removed and replaced by 200 μL/well of a standard extracellular saline (SES) solution supplemented with 11 mM glucose and 0.1% BSA. […] Real-time kinetic assays of FRET were performed using a FlexStation 3 microplate reader equipped with excitation and emission light monochromators (Molecular Devices, Sunnyvale, CA). […] The emission intensities were the averages of 15 excitation flashes for each time point per well. […] Prism 8.1 was also used for nonlinear regression analysis to quantify dose–response relationships.

rat GlucR = rat GlucR (Rattus norvegicus, UniProt P30082); experiment: cAMP FRET reporter (H188) agonism assay at GlucR in HEK293 cells; format: cell-based; details: HEK293 cells stably expressing GlucR, H188 FRET biosensor; duplicate independent experiments; read-out: GlucR agonist action (EC50), increase of cytosolic cAMP
Method: Plasmid encoding human Y2-R (I.D. NPYR20TN00) in pcDNA3.1 and human Y1-R (NPYR10TN00) were obtained from the cDNA Resource Center (Bloomsburg, PA). HEK293 cells stably expressing the rat GlucR were obtained from C. […] Adenovirus for transduction of HEK293 cells was generated by a commercial vendor (Vira-Quest, North Liberty, IA) using the shuttle vector pVQAd CMV K-NpA and the H188 plasmid provided by Prof. Kees Jalink.[74]
These assays were conducted as fully described by us previously.[70],[71] Briefly, HEK293 cells transiently or stably expressing recombinant GPCRs were plated at 80% confluency on 96-well clear-bottom assay plates (Costar 3904, Corning, NY). […] Real-time kinetic assays of FRET were performed using a FlexStation 3 microplate reader equipped with excitation and emission light monochromators (Molecular Devices, Sunnyvale, CA). Excitation light was delivered at 435/9 nm (455 nm cutoff), and emitted light was detected at 485 ± 15 nm (cyan fluorescent protein) or 535 ± 15 nm (yellow fluorescent protein).[68],[75] […] The 485/535 emission ratio was calculated for each well, and the mean ± SD values for 12 wells were averaged. […] Prism 8.1 was also used for nonlinear regression analysis to quantify dose–response relationships.

[3] = Pooled rat liver microsomal stability assay; format: in vitro ADME; details: pooled male Sprague–Dawley rat liver microsomes 1 mg/mL, 30 μM peptide, 1 mM NADPH, pH 7.4, 37 °C, over 120 min, HPLC UV 206 nm, n = 3; standard error in brackets
Method: Pooled liver microsomes from a male Sprague–Dawley rat were purchased from Sigma-Aldrich. Microsomal incubations were performed in triplicate as independent data sets in 3 mM MgCl2, 25 mM KH2PO4 buffer at pH 7.4. Assays were performed at 500 μL total volume with 30 μM peptide, 1 mM NADPH, and 1 mg/mL pooled liver microsomes. Kanamycin at 200 μM was used as an internal standard. Pooled rat liver microsome assay showing data collected by HPLC. […] Assays were conducted at 37 °C with gentle rocking. […] Data were fit utilizing eqs 3–6.

rat GLP-1R = target: T4, rat GLP-1R (Rattus norvegicus, UniProt P32301); format: cell-based
T4 sequence (P32301 22-463): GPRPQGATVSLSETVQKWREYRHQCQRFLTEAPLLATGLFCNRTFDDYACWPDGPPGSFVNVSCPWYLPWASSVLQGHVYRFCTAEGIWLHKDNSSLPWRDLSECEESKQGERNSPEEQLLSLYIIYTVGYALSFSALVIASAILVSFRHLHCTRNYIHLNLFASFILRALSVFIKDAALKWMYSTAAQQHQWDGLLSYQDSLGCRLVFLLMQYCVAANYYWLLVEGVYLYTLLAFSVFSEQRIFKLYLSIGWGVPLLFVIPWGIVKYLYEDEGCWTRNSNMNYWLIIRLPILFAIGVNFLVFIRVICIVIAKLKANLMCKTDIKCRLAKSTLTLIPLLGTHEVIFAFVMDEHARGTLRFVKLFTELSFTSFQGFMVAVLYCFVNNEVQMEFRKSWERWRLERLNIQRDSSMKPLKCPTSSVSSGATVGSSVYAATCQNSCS

T1 sequence (P43220 24-463): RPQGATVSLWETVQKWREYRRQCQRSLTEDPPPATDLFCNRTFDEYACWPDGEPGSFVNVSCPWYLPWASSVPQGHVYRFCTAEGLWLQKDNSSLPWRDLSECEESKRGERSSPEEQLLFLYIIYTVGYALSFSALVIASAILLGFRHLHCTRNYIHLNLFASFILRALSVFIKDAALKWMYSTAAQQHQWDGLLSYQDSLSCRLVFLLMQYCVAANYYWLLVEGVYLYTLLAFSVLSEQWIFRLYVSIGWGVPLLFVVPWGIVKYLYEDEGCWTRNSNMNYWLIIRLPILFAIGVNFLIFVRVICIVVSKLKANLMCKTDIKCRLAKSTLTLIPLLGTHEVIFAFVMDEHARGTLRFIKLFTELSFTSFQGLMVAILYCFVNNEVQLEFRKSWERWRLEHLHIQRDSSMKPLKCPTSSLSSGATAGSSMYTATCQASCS
Chain of rat GlucR (P30082 27-485): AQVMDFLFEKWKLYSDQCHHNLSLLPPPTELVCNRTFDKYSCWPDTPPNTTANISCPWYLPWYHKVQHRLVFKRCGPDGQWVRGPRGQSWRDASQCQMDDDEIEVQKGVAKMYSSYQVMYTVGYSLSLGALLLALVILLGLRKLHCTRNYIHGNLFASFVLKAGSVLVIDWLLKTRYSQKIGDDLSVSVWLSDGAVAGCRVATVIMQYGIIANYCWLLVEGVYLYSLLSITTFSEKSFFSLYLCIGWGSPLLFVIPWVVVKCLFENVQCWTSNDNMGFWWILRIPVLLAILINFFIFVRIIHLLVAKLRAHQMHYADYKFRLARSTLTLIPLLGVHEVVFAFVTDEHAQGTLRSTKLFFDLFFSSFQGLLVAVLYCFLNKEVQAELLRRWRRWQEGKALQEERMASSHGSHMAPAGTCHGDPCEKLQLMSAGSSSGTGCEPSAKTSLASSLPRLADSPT

## CC[C@H](C)[C@H](NC(=O)[C@H](Cc1ccccc1)NC(=O)[C@H](CC(C)C)NC(=O)[C@H](CCCNC(=N)N)NC(=O)[C@@H](NC(=O)[C@H](C)NC(=O)[C@H](CCC(=O)O)NC(=O)[C@H](CCC(=O)O)NC(=O)[C@H](CCC(=O)O)NC(=O)[C@H](CCSC)NC(=O)[C@H](CCC(N)=O)NC(=O)[C@H](CCCCN=[N+]=[N-])NC(=O)[C@H](CO)NC(=O)[C@H](CC(C)C)NC(=O)[C@H](CC(=O)O)NC(=O)[C@H](CO)NC(=O)[C@@H](NC(=O)[C@H](Cc1ccccc1)NC(=O)[C@@H](NC(=O)CNC(=O)[C@H](CCC(N)=O)NC(=O)[C@@H](CO)NC(=O)[C@@H](N)Cc1c[nH]cn1)[C@@H](C)O)[C@@H](C)O)C(C)C)C(=O)N[C@@H](CCC(=O)O)C(=O)N[C@@H](Cc1c[nH]c2ccccc12)C(=O)N[C@@H](CC(C)C)C(=O)N[C@@H](CCCCN)C(=O)N[C@@H](CC(N)=O)C(=O)N[C@@H](CCCNC(=N)N)C(=O)N[C@@H](Cc1c[nH]cn1)C(=O)N[C@@H](Cc1ccc(O)cc1)C(=O)N[C@@H](CC(C)C)C(=O)N[C@@H](CC(N)=O)C(=O)N[C@@H](CC(C)C)C(=O)N[C@H](C(=O)N[C@H](C(=O)N[C@@H](CCCNC(=N)N)C(=O)N[C@@H](CCC(N)=O)C(=O)N[C@@H](CCCNC(=N)N)C(=O)N[C@@H](Cc1ccc(O)cc1)C(N)=O)[C@@H](C)O)C(C)C [EP40]
Human GLP-1R [1]
  hill (competition binding at GLP-1R): –0.96

## CC[C@H](C)[C@H](NC(=O)[C@H](Cc1ccccc1)NC(=O)[C@H](CCC(=O)O)NC(=O)[C@H](CCCNC(=N)N)NC(=O)[C@@H](NC(=O)[C@H](C)NC(=O)[C@H](CCC(=O)O)NC(=O)[C@H](CCC(=O)O)NC(=O)[C@H](CCC(=O)O)NC(=O)[C@H](CC(C)C)NC(=O)[C@H](Cc1ccc(O)cc1)NC(=O)[C@H](CCCCN=[N+]=[N-])NC(=O)[C@H](CO)NC(=O)[C@H](CC(C)C)NC(=O)[C@H](CC(=O)O)NC(=O)[C@H](CO)NC(=O)[C@@H](NC(=O)[C@H](Cc1ccccc1)NC(=O)[C@@H](NC(=O)CNC(=O)[C@H](CCC(N)=O)NC(=O)[C@@H](CO)NC(=O)[C@@H](N)Cc1c[nH]cn1)[C@@H](C)O)[C@@H](C)O)C(C)C)C(=O)N[C@@H](C)C(=O)N[C@@H](Cc1c[nH]c2ccccc12)C(=O)N[C@@H](CC(C)C)C(=O)N[C@@H](CCCCN)C(=O)N[C@@H](CC(N)=O)C(=O)NCC(=O)NCC(=O)N1CCC[C@H]1C(=O)N[C@@H](CO)C(=O)N[C@@H](CCCNC(=N)N)C(=O)N[C@@H](Cc1c[nH]cn1)C(=O)N[C@@H](Cc1ccc(O)cc1)C(=O)N[C@@H](CC(C)C)C(=O)N[C@@H](CC(N)=O)C(=O)N[C@@H](CC(C)C)C(=O)N[C@H](C(=O)N[C@H](C(=O)N[C@@H](CCCNC(=N)N)C(=O)N[C@@H](CCC(N)=O)C(=O)N[C@@H](CCCNC(=N)N)C(=O)N[C@@H](Cc1ccc(O)cc1)C(N)=O)[C@@H](C)O)C(C)C [GEP44]
Human Y2-R
  IC50: 10 nM
Human Y1-R
  IC50: 27 nM
Human GLP-1R [2]; HEK cells expressing human GLP-1R and cAMP biosensor H188, FRET, SES buffer pH 7.4, nonlinear regression, 95% CI in brackets, at least triplicate independent data sets, read-out: GLP-1R agonist action (EC50), increase of cytosolic cAMP
  EC50: 0.33 nM
Rat GlucR
  EC50: > 3000 nM
Human GLP-1R [1]; nine concentrations 1 pM to 1 μM, range in brackets, read-out: IC50, competition binding at GLP-1R using red fluorescent GLP-1
  IC50: 113 nM
[3]
  CLlnt, intrinsic clearance in rat liver microsomes: 32.5 (1.18) μL/min/mg peptide

## H[dS]QGTFTSDLSKQMEEEAVRLFIEWLKNGGPSRHYLNLVTRQRY-NH2 [EP44]
Human GLP-1R [2]; comparison of EC50 values
  increased GLP-1R potency over GEP44: ~30%
Human GLP-1R [1]
  hill (competition binding at GLP-1R): –1.56
Rat GLP-1R
  Kd: 0.12 nM
